Laboratory results as given in PMC6445164, “Primary mono- and bis-sulfonamides obtained via regiospecific sulfochlorination of N-arylpyrazoles: inhibition profile against a panel of human carbonic anhydrases” (Journal of Enzyme Inhibition and Medicinal Chemistry, 2017).

Tested on: not given
Assay: not given
Conditions: not given

| melting point | Structure (SMILES) |
| --- | --- |
| 235 to 237 °C | NS(=O)(=O)c1ccc(Cl)c(-n2cc(S(N)(=O)=O)cn2)c1 [Compound 9r, 1-(2-Chloro-5-sulfamoylphenyl)-^1H-pyrazole-4-sulfonamide] |
| 161 to 163 °C | Cc1cc(-n2cccn2)ccc1S(N)(=O)=O [Compound 7d, 2-Methyl-4-(^1H-pyrazol-1-yl)benzenesulfonamide] |
| 181 to 183 °C | NS(=O)(=O)c1ccc(-n2cccn2)cc1Cl [Compound 7m, 2-Chloro-4-(^1H-pyrazol-1-yl)benzenesulfonamide] |
| 195 to 197 °C | NS(=O)(=O)c1cnn(-c2ccc(S(N)(=O)=O)c(Cl)c2)c1 [Compound 9p, 1-(3-Chloro-4-sulfamoylphenyl)-^1H-pyrazole-4-sulfonamide] |
| 195 to 197 °C | COc1ccc(-n2nc(C)cc2C)cc1S(N)(=O)=O [Compound 7g, 5-(3,5-Dimethyl-^1H-pyrazol-1-yl)-2-methoxybenzenesulfonamide] |
| 254 to 257 °C | COc1ccc(-n2nc(C)c(S(N)(=O)=O)c2C)cc1S(N)(=O)=O [Compound 9j, 1-(4-Methoxy-3-sulfamoylphenyl)-3,5-dimethyl-^1H-pyrazole-4-sulfonamide] |
| 147 to 149 °C | Cc1ccc(-n2cccn2)cc1S(N)(=O)=O [Compound 7b, 2-Methyl-5-(^1H-pyrazol-1-yl)benzenesulfonamide] |
| 185 to 188 °C | Cc1ccc(S(N)(=O)=O)cc1-n1cc(S(N)(=O)=O)cn1 [Compound 9i, 1-(2-Methyl-5-sulfamoylphenyl)-^1H-pyrazole-4-sulfonamide] |
| 174 to 176 °C | Cc1cccc(-n2nc(C)c(S(N)(=O)=O)c2C)c1 [Compound 8d, 3,5-Dimethyl-1-(3-methylphenyl)-^1H-pyrazole-4-sulfonamide] |

Biological target: hCA IX
Assay: not given
Parameters: method as in PMID 26160114
Conditions: Figure 2; cited from earlier work

| Structure (SMILES) | Ki |
| --- | --- |
| NS(=O)(=O)c1ccc(-c2cnc(C(=O)N3CCCC3)o2)s1 [Compound 4] | 18.7 nM |

Biological target: hCA XII
Assay: not given
Parameters: method as in PMID 26160114
Conditions: Figure 2; cited from earlier work

| Structure (SMILES) | Ki |
| --- | --- |
| NS(=O)(=O)c1ccc(-c2cnc(C(=O)N3CCCC3)o2)s1 [Compound 4] | 6.7 nM |

Biological target: hCA I (Homo sapiens, UniProt P00915)
Assay: stopped-flow CA catalysed CO2 hydration assay, hCA I
Conditions: not given

Chain of hCA I (P00915 whole entry): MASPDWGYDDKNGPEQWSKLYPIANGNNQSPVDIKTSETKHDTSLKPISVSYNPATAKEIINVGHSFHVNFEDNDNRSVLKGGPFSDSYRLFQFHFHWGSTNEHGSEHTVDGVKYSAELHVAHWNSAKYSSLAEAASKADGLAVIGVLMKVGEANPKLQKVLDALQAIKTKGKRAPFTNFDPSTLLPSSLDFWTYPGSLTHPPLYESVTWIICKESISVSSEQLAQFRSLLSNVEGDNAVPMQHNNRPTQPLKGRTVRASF

| Ki | Structure (SMILES) |
| --- | --- |
| 0.55 µM | NS(=O)(=O)c1ccc(Cl)c(-n2cc(S(N)(=O)=O)cn2)c1 [Compound 9r, 1-(2-Chloro-5-sulfamoylphenyl)-^1H-pyrazole-4-sulfonamide] |
| 0.096 µM | Cc1cc(-n2cccn2)ccc1S(N)(=O)=O [Compound 7d, 2-Methyl-4-(^1H-pyrazol-1-yl)benzenesulfonamide] |
| 0.066 µM | NS(=O)(=O)c1ccc(-n2cccn2)cc1Cl [Compound 7m, 2-Chloro-4-(^1H-pyrazol-1-yl)benzenesulfonamide] |
| 3.08 µM | NS(=O)(=O)c1cnn(-c2ccc(S(N)(=O)=O)c(Cl)c2)c1 [Compound 9p, 1-(3-Chloro-4-sulfamoylphenyl)-^1H-pyrazole-4-sulfonamide] |
| > 10 µM | COc1ccc(-n2nc(C)cc2C)cc1S(N)(=O)=O [Compound 7g, 5-(3,5-Dimethyl-^1H-pyrazol-1-yl)-2-methoxybenzenesulfonamide] |
| 0.95 µM | COc1ccc(-n2nc(C)c(S(N)(=O)=O)c2C)cc1S(N)(=O)=O [Compound 9j, 1-(4-Methoxy-3-sulfamoylphenyl)-3,5-dimethyl-^1H-pyrazole-4-sulfonamide] |
| > 10 µM | Cc1ccc(-n2cccn2)cc1S(N)(=O)=O [Compound 7b, 2-Methyl-5-(^1H-pyrazol-1-yl)benzenesulfonamide] |
| 0.27 µM | Cc1cccc(-n2nc(C)c(S(N)(=O)=O)c2C)c1 [Compound 8d, 3,5-Dimethyl-1-(3-methylphenyl)-^1H-pyrazole-4-sulfonamide] |

Same assay, conditions: read-out: hCA Ki (μM) hCA I; recombinant enzyme, stopped-flow CO2 hydration, 15 min preincubation, pH 8.3

| Ki | Structure (SMILES) |
| --- | --- |
| 0.55 µM | Cc1ccc(S(N)(=O)=O)cc1-n1cc(S(N)(=O)=O)cn1 [Compound 9i, 1-(2-Methyl-5-sulfamoylphenyl)-^1H-pyrazole-4-sulfonamide] |

Biological target: hCA II (Homo sapiens, UniProt P00918)
Assay: stopped-flow CA catalysed CO2 hydration assay, hCA II
Conditions: not given

| Ki | Structure (SMILES) |
| --- | --- |
| 0.005 µM | NS(=O)(=O)c1ccc(Cl)c(-n2cc(S(N)(=O)=O)cn2)c1 [Compound 9r, 1-(2-Chloro-5-sulfamoylphenyl)-^1H-pyrazole-4-sulfonamide] |
| 0.008 µM | Cc1cc(-n2cccn2)ccc1S(N)(=O)=O [Compound 7d, 2-Methyl-4-(^1H-pyrazol-1-yl)benzenesulfonamide] |
| 0.085 µM | NS(=O)(=O)c1ccc(-n2cccn2)cc1Cl [Compound 7m, 2-Chloro-4-(^1H-pyrazol-1-yl)benzenesulfonamide] |
| 0.008 µM | NS(=O)(=O)c1cnn(-c2ccc(S(N)(=O)=O)c(Cl)c2)c1 [Compound 9p, 1-(3-Chloro-4-sulfamoylphenyl)-^1H-pyrazole-4-sulfonamide] |
| > 10 µM | COc1ccc(-n2nc(C)cc2C)cc1S(N)(=O)=O [Compound 7g, 5-(3,5-Dimethyl-^1H-pyrazol-1-yl)-2-methoxybenzenesulfonamide] |
| 0.96 µM | COc1ccc(-n2nc(C)c(S(N)(=O)=O)c2C)cc1S(N)(=O)=O [Compound 9j, 1-(4-Methoxy-3-sulfamoylphenyl)-3,5-dimethyl-^1H-pyrazole-4-sulfonamide] |
| > 10 µM | Cc1ccc(-n2cccn2)cc1S(N)(=O)=O [Compound 7b, 2-Methyl-5-(^1H-pyrazol-1-yl)benzenesulfonamide] |
| 0.24 µM | Cc1cccc(-n2nc(C)c(S(N)(=O)=O)c2C)c1 [Compound 8d, 3,5-Dimethyl-1-(3-methylphenyl)-^1H-pyrazole-4-sulfonamide] |

Same assay, conditions: read-out: hCA Ki (μM) hCA II; recombinant enzyme, stopped-flow CO2 hydration, 15 min preincubation, pH 8.3

| Ki | Structure (SMILES) |
| --- | --- |
| 0.03 µM | Cc1ccc(S(N)(=O)=O)cc1-n1cc(S(N)(=O)=O)cn1 [Compound 9i, 1-(2-Methyl-5-sulfamoylphenyl)-^1H-pyrazole-4-sulfonamide] |

Biological target: hCA IV (Homo sapiens, UniProt P22748)
Assay: stopped-flow CA catalysed CO2 hydration assay, hCA IV
Conditions: not given

Chain of hCA IV (P22748 19-312): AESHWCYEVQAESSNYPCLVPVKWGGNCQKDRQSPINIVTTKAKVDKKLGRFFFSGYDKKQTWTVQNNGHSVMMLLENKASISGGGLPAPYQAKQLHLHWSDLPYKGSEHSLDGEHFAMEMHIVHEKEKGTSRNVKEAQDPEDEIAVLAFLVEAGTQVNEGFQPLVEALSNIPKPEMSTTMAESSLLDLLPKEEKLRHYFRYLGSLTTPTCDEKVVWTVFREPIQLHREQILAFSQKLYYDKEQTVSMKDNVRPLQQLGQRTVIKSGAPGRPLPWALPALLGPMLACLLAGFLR

| Ki | hCA IV inhibition, in words | Structure (SMILES) |
| --- | --- | --- |
| 0.022 µM |  | NS(=O)(=O)c1ccc(Cl)c(-n2cc(S(N)(=O)=O)cn2)c1 [Compound 9r, 1-(2-Chloro-5-sulfamoylphenyl)-^1H-pyrazole-4-sulfonamide] |
| 3.42 µM |  | Cc1cc(-n2cccn2)ccc1S(N)(=O)=O [Compound 7d, 2-Methyl-4-(^1H-pyrazol-1-yl)benzenesulfonamide] |
| 0.086 µM |  | NS(=O)(=O)c1ccc(-n2cccn2)cc1Cl [Compound 7m, 2-Chloro-4-(^1H-pyrazol-1-yl)benzenesulfonamide] |
| 0.075 µM |  | NS(=O)(=O)c1cnn(-c2ccc(S(N)(=O)=O)c(Cl)c2)c1 [Compound 9p, 1-(3-Chloro-4-sulfamoylphenyl)-^1H-pyrazole-4-sulfonamide] |
| > 10 µM |  | COc1ccc(-n2nc(C)cc2C)cc1S(N)(=O)=O [Compound 7g, 5-(3,5-Dimethyl-^1H-pyrazol-1-yl)-2-methoxybenzenesulfonamide] |
| > 10 µM |  | COc1ccc(-n2nc(C)c(S(N)(=O)=O)c2C)cc1S(N)(=O)=O [Compound 9j, 1-(4-Methoxy-3-sulfamoylphenyl)-3,5-dimethyl-^1H-pyrazole-4-sulfonamide] |
| 0.56 µM | potent inhibition of hCA IV | Cc1ccc(-n2cccn2)cc1S(N)(=O)=O [Compound 7b, 2-Methyl-5-(^1H-pyrazol-1-yl)benzenesulfonamide] |
| > 10 µM |  | Cc1cccc(-n2nc(C)c(S(N)(=O)=O)c2C)c1 [Compound 8d, 3,5-Dimethyl-1-(3-methylphenyl)-^1H-pyrazole-4-sulfonamide] |

Same assay, conditions: read-out: hCA Ki (μM) hCA IV; recombinant enzyme, stopped-flow CO2 hydration, 15 min preincubation, pH 8.3

| Ki | Structure (SMILES) |
| --- | --- |
| 7.86 µM | Cc1ccc(S(N)(=O)=O)cc1-n1cc(S(N)(=O)=O)cn1 [Compound 9i, 1-(2-Methyl-5-sulfamoylphenyl)-^1H-pyrazole-4-sulfonamide] |

Same assay, conditions: within the panel hCA I, II, IV, VII

| isoform selectivity for hCA IV, in words | Structure (SMILES) |
| --- | --- |
| high selectivity | Cc1ccc(-n2cccn2)cc1S(N)(=O)=O [Compound 7b, 2-Methyl-5-(^1H-pyrazol-1-yl)benzenesulfonamide] |

Biological target: hCA VII (Homo sapiens, UniProt P43166)
Assay: stopped-flow CA catalysed CO2 hydration assay, hCA VII
Conditions: not given

Chain of hCA VII (P43166 whole entry): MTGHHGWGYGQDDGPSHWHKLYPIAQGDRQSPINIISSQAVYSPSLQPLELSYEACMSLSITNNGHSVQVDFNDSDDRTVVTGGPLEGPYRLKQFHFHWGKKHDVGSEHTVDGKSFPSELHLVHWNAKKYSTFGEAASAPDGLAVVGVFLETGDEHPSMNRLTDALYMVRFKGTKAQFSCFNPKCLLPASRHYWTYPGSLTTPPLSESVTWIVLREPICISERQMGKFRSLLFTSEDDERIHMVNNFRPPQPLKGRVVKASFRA

| Ki | Structure (SMILES) |
| --- | --- |
| 0.6 µM | NS(=O)(=O)c1ccc(Cl)c(-n2cc(S(N)(=O)=O)cn2)c1 [Compound 9r, 1-(2-Chloro-5-sulfamoylphenyl)-^1H-pyrazole-4-sulfonamide] |
| 0.014 µM | Cc1cc(-n2cccn2)ccc1S(N)(=O)=O [Compound 7d, 2-Methyl-4-(^1H-pyrazol-1-yl)benzenesulfonamide] |
| 0.328 µM | NS(=O)(=O)c1ccc(-n2cccn2)cc1Cl [Compound 7m, 2-Chloro-4-(^1H-pyrazol-1-yl)benzenesulfonamide] |
| 0.48 µM | NS(=O)(=O)c1cnn(-c2ccc(S(N)(=O)=O)c(Cl)c2)c1 [Compound 9p, 1-(3-Chloro-4-sulfamoylphenyl)-^1H-pyrazole-4-sulfonamide] |
| > 10 µM | COc1ccc(-n2nc(C)cc2C)cc1S(N)(=O)=O [Compound 7g, 5-(3,5-Dimethyl-^1H-pyrazol-1-yl)-2-methoxybenzenesulfonamide] |
| 0.33 µM | COc1ccc(-n2nc(C)c(S(N)(=O)=O)c2C)cc1S(N)(=O)=O [Compound 9j, 1-(4-Methoxy-3-sulfamoylphenyl)-3,5-dimethyl-^1H-pyrazole-4-sulfonamide] |
| > 10 µM | Cc1ccc(-n2cccn2)cc1S(N)(=O)=O [Compound 7b, 2-Methyl-5-(^1H-pyrazol-1-yl)benzenesulfonamide] |
| 0.94 µM | Cc1cccc(-n2nc(C)c(S(N)(=O)=O)c2C)c1 [Compound 8d, 3,5-Dimethyl-1-(3-methylphenyl)-^1H-pyrazole-4-sulfonamide] |

Same assay, conditions: read-out: hCA Ki (μM) hCA VII; recombinant enzyme, stopped-flow CO2 hydration, 15 min preincubation, pH 8.3

| Ki | Structure (SMILES) |
| --- | --- |
| 0.014 µM | Cc1ccc(S(N)(=O)=O)cc1-n1cc(S(N)(=O)=O)cn1 [Compound 9i, 1-(2-Methyl-5-sulfamoylphenyl)-^1H-pyrazole-4-sulfonamide] |
